Data reported in patent US20020177616A1, “Use of chromans” (priority 2001, published 2002).
Counter-ions that a name gives are not always drawn.

Experiments:
[1] = system: MPTP-monkey model; assay: chronic MPTP monkey model of Parkinson's disease; format: in vivo, rhesus monkeys (Macaca fascicularis); parameters: key to Slowing of the development of Parkinsonism: 0 = No slowing of the development of parkinsonism; + = Statistically significant delay in the attainment of Score 8; settings: for Symptomatology on the last 3 days: MPTP only group = 100%
[2] = target: T1, human recombinant 5-HT1A receptors (Homo sapiens, UniProt P08908); assay: GTP gamma[S-35] binding, agonistic action on human recombinant 5-HT1A receptors; format: biochemical; settings: for EC50: GTP gamma[S-35] binding, human recombinant 5-HT1A receptors
T1 sequence (P08908 1-422): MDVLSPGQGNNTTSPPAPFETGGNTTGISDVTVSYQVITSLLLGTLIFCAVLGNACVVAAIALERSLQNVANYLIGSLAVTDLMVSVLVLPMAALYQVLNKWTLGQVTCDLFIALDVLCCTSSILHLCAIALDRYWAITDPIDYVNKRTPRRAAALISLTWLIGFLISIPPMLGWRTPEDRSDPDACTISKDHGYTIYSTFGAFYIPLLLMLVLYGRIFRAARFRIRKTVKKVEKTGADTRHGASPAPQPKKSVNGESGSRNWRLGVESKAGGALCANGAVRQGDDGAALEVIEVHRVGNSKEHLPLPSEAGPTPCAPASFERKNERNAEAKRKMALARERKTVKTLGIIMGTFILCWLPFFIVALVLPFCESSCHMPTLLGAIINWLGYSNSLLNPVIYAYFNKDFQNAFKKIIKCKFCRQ
Method: Determination of the Avonistic action on Human Recombinant 5-HT1A Receptors
Signal transduction studies were carried out on human recombinant 5-HT1A receptors using the guanosine 5′-O-(3-[S-35]thio)-triphosphate (GTP gamma[S-35]) binding technique (modified according to Elliott and Reynolds Europ J. Pharmacol 1999, 386, 313-315 and Sim et al. J. Neurosci 1996, 16, 8057-8066).

SMILES | neuroprotective activity after oral administration ([1]; 1 mg/kg p.o. bid) | reduction of the degree of severity of the symptoms (symptomatic action) compared with control ([1]; 1 mg/kg p.o. bid) | Slowing of the development of Parkinsonism ([1]; MPTP 0.2 mg/kg i.v. daily + 1.0 mg/kg p.o. bid) | Symptomatology on the last 3 days ([1]; MPTP + 1.0 mg/kg p.o. bid) | potency relative to repinotan hydrochloride ([2]; 5-HT1A agonism, from EC50 values) | EC50 [2] | neuroprotective activity after oral administration ([1]; 2 mg/kg p.o. bid) | symptomatic action ([1]; 2 mg/kg p.o. bid) | Slowing of the development of Parkinsonism ([1]; MPTP 0.2 mg/kg i.v. daily + 2.0 mg/kg p.o. bid) | Symptomatology on the last 3 days ([1]; MPTP + 2.0 mg/kg p.o. bid)
CC(C)Oc1cccc2c1O[C@@H](CNCCCCN1C(=O)c3ccccc3S1(=O)=O)CC2 [Example 11, 2-[4-({[(2R)-8-isopropoxy-chroman-2-yl]methyl}amino)butyl]-1,2-benzisothiazol-3(2H)-one 1,1-dioxide hydrochloride] | slowed the development of the parkinsonism symptoms | 22% | + | 78% | approximately twice | 0.19 nM |  |  |  | 
Cl.O=C1c2ccccc2S(=O)(=O)N1CCCCNC[C@H]1CCc2ccccc2O1 [Repinotan hydrochloride, 2-[4-({[(2R)-chroman-2-yl]methyl}amino)butyl]-1,2-benzisothiazol-3(2H)-one 1,1-dioxide hydrochloride, reference compound] |  |  |  |  |  | 0.51 nM | slowed the development of the parkinsonism symptoms | not observed | + | 100%
